# Source: paper PMC6522510 (Nature Communications, 2019)
# pEC50: −log10 of the molar value. Like-named read-outs stand apart in the source and are kept apart here.
# Legend:
# Assay in all cases: Secondary dose-response HTS, Cell Titer Glo; call rule not given here
# Format in all cases: cell-based, human
# [1] = system: ML2; conditions: ML-2
# [2] = system: U937; conditions: for pEC50: Homo sapiens, U-937
# [3] = system: CHRF288-11; conditions: for pEC50: Homo sapiens
# [4] = system: CMK; conditions: CMK; for average effective concentration, CMK: secondary high-throughput screen; for pEC50: Homo sapiens
# [5] = system: MV4-11; conditions: MV4-11; for pEC50: Homo sapiens
# [6] = system: M07e; conditions: for pEC50: Homo sapiens, M-07e
# [7] = system: CMS; conditions: for pEC50: Homo sapiens, HTS
# [8] = system: MOLM-13; conditions: MOLM-13; for pEC50: Homo sapiens
# [9] = secondary high-throughput screen
# [10] = secondary high-throughput screen, U937
# [11] = secondary high-throughput screen, CHRF288-11
# [12] = secondary high-throughput screen, M07e
# [13] = secondary high-throughput screen, CMS
# [14] = secondary high-throughput screen, read-out: average effective concentration, MOLM-13
# [15] = Homo sapiens, secondary high-throughput screen, read-out: average effective concentration, ML-2
# [16] = secondary high-throughput screen, U937, read-out: average effective concentration, U937
# [17] = HTS, secondary high-throughput screen, CHRF288-11, read-out: average effective concentration, CHRF288-11
# [18] = secondary high-throughput screen, M07e, read-out: average effective concentration, M07e
# [19] = secondary high-throughput screen, CMS, read-out: average effective concentration, CMS
# [20] = Homo sapiens, secondary HTS, 72 h, average of triplicate, read-out: EC50 ML2
# [21] = secondary HTS, 72 h, average of triplicate, read-out: EC50 U937
# [22] = secondary HTS, 72 h, average of triplicate, read-out: EC50 CHRF288-11
# [23] = read-out: average effective concentration, CMK
# [24] = secondary HTS, 72 h, average of triplicate, read-out: EC50 M07e
Compound,"average effective concentration, ML-2 [1, 9]","average effective concentration, U937 [2, 10]","average effective concentration, CHRF288-11 [3, 11]","average effective concentration, CMK [4]","average effective concentration, MV4-11 [5, 9]","average effective concentration, M07e [6, 12]","average effective concentration, CMS [7, 13]",also measured
COC(=O)[C@H](CC(C)C)NC(=O)c1ccc(NCc2cnc[nH]2)cc1-c1cccc2ccccc12 [GGTI-2147],Inactive,Inactive,Inactive,Inactive,Inactive,Inactive,Inactive,
O=C(CCN1CCN(C(=O)OCc2cc(Cl)cc(Cl)c2)CC1)c1ccc2[nH]c(=O)oc2c1 [PF-8380],Inactive,Inactive,Inactive,Inactive,Inactive,Inactive,Inactive,
CC(C)Oc1ccc(-c2cnc3c(-c4ccnc5ccccc45)cnn3c2)cc1 [DMH-1],Inactive,Inactive,Inactive,Inactive,Inactive,Inactive,Inactive,
C=C1C(=O)O[C@@H](CCC)[C@@H]1C(=O)O (racemic) [BUTYROLACTONE 3],Inactive,Inactive,Inactive,Inactive,Inactive,,Inactive,"average effective concentration, M07e ([6]; secondary high-throughput screen, […]): Inactive"
Cc1c(-c2cnccn2)ssc1=S [OLTIPRAZ],,,,,,,,"pEC50 [8, 14]: < 5.00; pEC50 [1, 15]: 5.51; pEC50 [2, 16]: 5.24; pEC50 [3, 17]: < 5.00; pEC50 [6, 18]: < 5.00; pEC50 [7, 19]: 5.00"
Cc1noc(-c2ccc(-c3ccc(CC(=O)O)cc3)cc2)c1NC(=O)O[C@H](C)c1ccccc1Cl [AM-966],Inactive,Inactive,Inactive,Inactive,Inactive,Inactive,Inactive,
"COc1ccc(-c2ccc3ncc4c(c3c2)n(-c2ccc(N3CCNCC3)c(C(F)(F)F)c2)c(=O)n4C)cn1 [NVP-BGT226, reference compound]",,,,,,,,"pEC50 [1, 20]: 6.64; pEC50 [1, 15]: 6.64; pEC50 [2, 21]: 7.10; pEC50 [2, 16]: 7.10; pEC50 [3, 17]: 7.26; pEC50 [3, 22]: 7.30; pEC50 ([4]; 72 h, read-out: EC50 CMK): 7.22; pEC50 [4, 23]: 7.20; pEC50 ([5]; secondary HTS, 72 h, average of triplicate, read-out: EC50 MV4-11): 7.30; pEC50 ([5]; secondary high-throughput screen, read-out: average effective concentration, MV4-11): 7.30; pEC50 [6, 24]: 6.60; pEC50 [6, 18]: 6.60; pEC50 ([7]; 72 h, read-out: EC50 CMS): 8.00; pEC50 ([7]; read-out: average effective concentration, CMS): 7.85"
CN(C)CC(=O)Nc1ccc2[nH]c(=O)c3ccccc3c2c1 [PJ34],Inactive,Inactive,Inactive,Inactive,Inactive,Inactive,Inactive,
SCH 51344,Inactive,Inactive,Inactive,Inactive,,Inactive,Inactive,"average effective concentration, MOLM-13 [8, 9]: Inactive"
O=C1NCCc2c(OCCCCN3CCCCC3)cccc21 [DPQ],Inactive,Inactive,Inactive,Inactive,Inactive,Inactive,Inactive,
NC(=O)c1cccc2ncc(-c3ccc(Cl)cc3)nc12 [PARP INHIBITOR XII],Inactive,Inactive,Inactive,Inactive,Inactive,Inactive,Inactive,
"C[C@H]1[C@H](OC(=O)CCC(=O)O)O[C@@H]2O[C@@]3(C)CC[C@H]4[C@H](C)CC[C@@H]1[C@@]24OO3 [Artesunate, reference compound]",,,,,,,,"pEC50 [8, 14]: 5.89; pEC50 [1, 15]: 5.34; pEC50 [2, 16]: 6.00; pEC50 [3, 17]: 5.07; pEC50 [6, 18]: 5.92; pEC50 [7, 19]: 5.23"
O=C(CCCCCCSc1ccc2ccccc2c1)NO [HNHA],,Inactive,,Inactive,Inactive,Inactive,Inactive,"pEC50 ([1]; secondary high-throughput screen, read-out: average effective concentration, ML-2): 5.07"
"COc1ccc(-c2nc(N3CCOCC3)c3sc(CN(C)c4ncc(C(=O)NO)cn4)cc3n2)cn1 [CUDC-907, reference compound]",,,,,,,,"pEC50 ([8]; secondary HTS, 72 h, average of triplicate, read-out: EC50 MOLM-13): 9.40; pEC50 [8, 14]: 9.35; pEC50 [1, 20]: 8.70; pEC50 [1, 15]: 8.77; pEC50 [2, 21]: 8.40; pEC50 [3, 17]: 9.05; pEC50 [3, 22]: 9.00; pEC50 ([4]; 72 h, read-out: EC50 CMK): 8.70; pEC50 [4, 23]: 8.72; pEC50 [6, 24]: 9.00; pEC50 [6, 18]: 9.15; pEC50 ([7]; 72 h, read-out: EC50 CMS): 9.00"
O=C(O)C(Cc1c[nH]c2ccccc12)N1C(=O)c2ccccc2C1=O (stereo not drawn) [RG108],Inactive,Inactive,Inactive,Inactive,Inactive,Inactive,Inactive,
O=c1[nH]c2ccccc2c2ccccc12 [6(5H)-PHENANTHRIDINONE],,Inactive,,Inactive,Inactive,Inactive,Inactive,
CC(N[C@H]1C[C@@H]1c1ccccc1)c1ccc2c(c1)OCCO2 (stereo partly drawn) [LSD1-C76],Inactive,Inactive,Inactive,Inactive,,Inactive,Inactive,"average effective concentration, MOLM-13 [8, 9]: Inactive"
